Patent US6649797B2, “Compounds and methods of use to treat infectious diseases” (The Picower Institute for Medical Research, priority 1996, dated 2003)
Values joined by “and” are separate entries in the source; they are usually repeats but may differ in a detail not shown here. Identical values can stand only once. Like-named read-outs stand apart in the source and are kept apart here.

Key:
[1] = Pharmacokinetics in mice (plasma, HPLC); format: in vivo, mouse; conditions: for AUC / Cmax / bioavailability / Tmax / A (zero time intercept of the distribution phase) / B (zero time intercept of the elimination phase) / Cltot / VD / t1/2α / t1/2β / α / β: mouse
Method: Standard addition curves for each test compound were constructed by adding increased amounts of drug to mouse or human A^+ plasma (Long Island Blood Services; Melville, N.Y). […] The column was washed with 1.0 ml of water and then eluted with 1.0 ml of 10 mM tetramethylammonium chloride/10 mM heptane sulfonate/4.2 mM H3PO4/95% CH3CN/5% H2O (Buffer C). The eluted sample was reduced to dryness in a rotary evaporator and resuspended in 1.0 ml Buffer A.
Two hundred μl of the resuspended sample was injected onto a Hewlett-Packard model 1090 high performance liquid chromatography system (HPLC)(Wilmington, Del.) equipped with a photodiode array ultraviolet/visible spectrophotometric detector, autosampler, and Chemstation operating software. The column used was a 250×4.6 mm Zorbax RX-C8 column (Mac-Mod Analyticals; Chadd's Ford, Pa.) kept at room temperature and run at 1.5 ml/min. The mobile phase used was Buffer A and 10 mM tetramethylammonium chloride/10 mM heptane sulfonate/4.2 mM H3PO4/75% CH3CN/25% H2O (Buffer B), with all runs initiated at 10% Buffer B. A linear 30 min gradient to 60% Buffer B was then performed, followed by a 4 min reverse gradient to initial conditions.
Female ND4 Swiss Webster mice (21-24 g) were obtained from Harlan Sprague Dawley (Indianapolis, Ind.) and randomly placed in groups of five in cages with free access to food and water. […] The other CNI compounds were administered intraperitoneally or by oral gavage as a solution in water titrated with sufficient HCl to dissolve the drug. At various time points, ranging from 5 min to 4 days, a single group of animals was euthanized by carbon dioxide inhalation and bled by cardiac puncture using heparin as an anticoagulant. The blood from the five mice in the group was pooled and centrifuged at 14000× g for 10 min. The volume of plasma was measured, and equal volume of Buffer A added, and the mixture extracted and analyzed as described above, except that the dried eluates were resuspended in 200 μl Buffer A and 100 μl was injected onto the high performance liquid chromatography (HPLC) system.
The area under the plasma concentration-time curve (AUC) was determined, and bioavailability was measured as AUCoral/AUCi.p. A and B represent the zero time intercept of the distribution and elimination phases respectively, and a and β the respective slopes of the phases multiplied by 2.303. The t/2α and t1/2β are calculated half-lives of the drug in each phase (0.693/α and 0.693/β respectively). The volume of distribution (VD) was calculated as dose/B, and the total clearance rate (Cltot) calculated as β*VD. Cmax and tmax are the maximal plasma concentration and time of this measurement, respectively.

[2] = target: HIV-1 RT (Human immunodeficiency virus type 1 group M subtype B, UniProt P04585); test: Enzymatic activity of HIV-1 RT in vitro; format: biochemical
[3] = system: HIV-1ADA; test: Anti-HIV activity in primary human monocytes, day 9 (Table IX, FIG. 12C); format: cell-based; conditions: Human immunodeficiency virus 1, Monocyte, 216 h
[4] = In vitro metabolism with mouse liver post-mitochondrial supernatant and NADPH; format: in vitro ADME
Method: Several female ND4 Swiss Webster mice were euthanized by carbon dioxide inhalation and the livers excised and rinsed with ice cold phosphate buffered saline (pH 7.4). The livers were minced, gently homogenized in 50 mM phosphate buffer (pH 7.4) with a Dounce homogenizer, and centrifuged at 9600× g for 20 min. The post-mitochondrial supernatant was kept, glycerol added to 20%, and frozen at −70° C in 1.0 ml aliquots until used. For each incubation, 1.0 ml of a 1.0 mg/ml drug solution was added to 3.0 ml of 50 mM phosphate buffer (pH 7.4), 1.0 ml of 2 mg/ml NADPH in 50 mM phosphate (pH 7.4), and 1.0 ml of the post-mitochondrial supernatant. Five hundred μl of each incubate was then immediately transferred to an ice-cold tube to provide the zero-time sample, and addition 500 μl aliquots removed to ice-cold tubes at 8, 15, 30, and 60 min. The samples were then extracted, and analyzed by HPLC as described in section 7.1. Control incubations were also performed where drug or post-10 mitochondrial supernatant was omitted. […] Peaks in the CNI compound incubations which increased over time, and were not present in control samples lacking the enzyme preparation were treated as putative metabolites.

[5] = target: T1, MA associated with the HIV-1 pre-integration complex (Human immunodeficiency virus type 1 group M subtype B, UniProt P05890+P05959); test: Reaction of [14C]CNI-H0294 with MA in HIV-1 pre-integration complexes after borohydride reduction; format: binding; conditions: 10 μM [14C]-CNI-H0294, borohydride reduction, HIV-1-infected cell extracts
T1 construct: MA is made from the Gag precursor and RT is made from the Gag-Pol precursor; endogenous in cells; host or cells: cytoplasmic extract of H9 cells infected with HIV-1RF
Method: Cytoplasmic extracts from HIV-1RF-infected H9 cells were treated with [^14C]CNI-H0294 (10 μM). After borohydride reduction the extracts were immunoprecipitated with anti-MA (αMA), anti-IN (αIN), or pre-immune serum (PI). […] Immunoprecipitated radioactivity was quantified in a scintillation counter.
Cytoplasmic lysates prepared from HIV-1-infected cells were treated with 10 μM of [^14C]-labeled CNI-H0294 (specific activity 5×10^4 cpm/nmol) in 1 ml extraction buffer adjusted to 0.14 M NaCl. Sodium borohydride was then added to a final concentration 10 mM and samples were incubated 1 hr at room temperature prior to immunoprecipitation to reduce double bonds of Schiff bases to an irreversible secondary amine. Immunoprecipitation was performed as described above, but beads were stringently washed three times with PBS supplemented with 0.1% SDS, 1% sodium deoxycholate, 1 μg/ml each of aprotinin and leupeptin, and 1 mM PMSF.
To discriminate between these two possibilities, cytoplasmic extracts of HIV-1-infected cells were treated with [^14C]-CNI-H0294 and then with sodium borohydride, to reduce the reversible Schiff bases hypothesized to form between the compound and the lysines of MA NLS and convert the attached drug molecules to irreversible adducts. […] Without borohydride treatment, no radioactivity was immunoprecipitated with MA.

[6] = system: HIV-1ADA; test: HIV-1ADA production in mitogen-stimulated peripheral blood leukocytes (FIG. 3); format: cell-based
Method: FIG. 3. The effect of various concentrations of Compound No. 2 on RT activity in the supernatant of HIV-1-infected mitogen-stimulated peripheral blood leukocytes at infected at 10 and 1.0 ng p24/[…], FIGS. 3A and 3B, respectively.
PBMCs were purified by Ficoll-Hypaque centrifugation and activated by 10 μg/ml PHA-P (Sigma) and 20 U/ml recombinant human IL-2 (rhIL-2) in RPMI 1640 supplemented with 10% FBS (HyClone). After 24 h incubation, cells were washed and inoculated with HIV-1ADA in RPMI 1640 supplemented with 10% FBS. After a 2 h adsorption, free virus was washed away and cells were cultured in RPMI 1640 supplemented with 10% FBS and 20 U/ml rhIL-2.
For the reverse transcriptase (RT) assay, 10 μl of culture supernatant was added to 40 μl of reaction mixture (final composition was 50 mM Tris-HCl, pH 7.8; 20 MM KCl; 5 MM MgCl2; 1 mM DTT; 0.1% Triton X-100; 0.2 OD/ml polyA; 0.2 OD/ml oligo(dT)12-18; and 40 μCi/ml ^3H-dTTP (76 Ci/mmol, DuPont) and incubated 2 hr at 37° C. 5 μl of the reaction mixture was then spotted onto the DE 81 (Whatman) paper. Paper was air dried and washed 5 times with 5% Na2HPO4, followed by rinsing with distilled water. After air drying, paper was put on a Flexi Filter plate (Packard), covered with scintillation fluid and counted in a Top Count Microplate Counter (Packard). Results are expressed as counts per minute in 1 ml of supernatant (cpm/ml).

[7] = female, ND4 Swiss Webster, plasma, ip, 50 mg/kg, vehicle DMSO/peanut oil
[8] = female, ND4 Swiss Webster, plasma, ip, 50 mg/kg, vehicle water
[9] = female, ND4 Swiss Webster, plasma, po, 50 mg/kg, vehicle DMSO/peanut oil
[10] = i.p., 50 mg/kg, vehicle DMSO/peanut oil

CC(=O)c1cc(Nc2cc(C)[n+](C)c(N)n2)cc(C(C)=O)c1 [CNI-0294, 2-Amino-4-(3,5-diacetylphenyl)amino-1,6-dimethylpyrimidinium chloride]
AUC [1, 7]: 9150 ng·h/mL | Cmax [1, 7]: 18800 ng/mL | AUC [1, 8]: 8830 ng·h/mL | Cmax [1, 8]: 18900 ng/mL | bioavailability ([1]; female, ND4 Swiss Webster, plasma, oral, mice, single 50 mg/kg dose, AUCoral against AUCi.p., read-out: relative bioavailability): 6% | AUC [1, 9]: 560 ng·h/mL | Cmax [1, 9]: 410 ng/mL | Tmax ([1]; female, ND4 Swiss Webster, plasma, ip, i.p., 50 mg/kg, vehicle DMSO/peanut oil, read-out: tmax (converted)): 5 min | bioavailability ([1]; female, ND4 Swiss Webster, plasma, oral, 50 mg/kg, vehicle DMSO/peanut oil, AUCoral/AUCi.p., read-out: Bioavailability): 6% | Tmax ([1]; female, ND4 Swiss Webster, plasma, oral, 50 mg/kg, vehicle DMSO/peanut oil, read-out: tmax (converted)): 60 min | maximal plasma level ([1]; mice, oral, single 50 mg/kg dose): 0.4 µg/mL | maximal plasma level ([1]; mice, single i.p. injection (50 mg/kg; CNI-1594 20 mg/kg)): 18.76 µg/mL and 18.76 to 18.93 µg/mL | A (zero time intercept of the distribution phase) [1, 10]: 14.00 µg/mL | B (zero time intercept of the elimination phase) [1, 10]: 0.07 µg/mL | Cltot [1, 10]: 35.35 mL/min | VD [1, 10]: 14.14 L | t1/2α [1, 10]: 37.2 min | t1/2β [1, 10]: 277 min | α [1, 10]: 1.12 h⁻¹ | β [1, 10]: 0.15 h⁻¹ | A (zero time intercept of the distribution phase) ([1]; i.p., 50 mg/kg, vehicle water): 16.07 µg/mL | B (zero time intercept of the elimination phase) ([1]; i.p., 50 mg/kg, vehicle water): 0.05 µg/mL | Cltot ([1]; i.p., 50 mg/kg, vehicle water): 62.70 mL/min | Tmax ([1]; i.p., 50 mg/kg, vehicle water): 5 min | VD ([1]; i.p., 50 mg/kg, vehicle water): 19.80 L | t1/2α ([1]; i.p., 50 mg/kg, vehicle water): 24 min | t1/2β ([1]; i.p., 50 mg/kg, vehicle water): 219 min | α ([1]; i.p., 50 mg/kg, vehicle water): 1.74 h⁻¹ | β ([1]; i.p., 50 mg/kg, vehicle water): 0.19 h⁻¹ | block of enzymatic activity of HIV-1 RT in vitro ([2]; concentrations up to 50 μM): nor did it block in concentrations up to 50 μM the enzymatic activity of HIV-1 RT in vitro | IC50 [3]: 50 nM | metabolites produced [4]: three minor and one major metabolite | metabolic conversion (drug altered, as judged by peak area) ([4]; 60 min incubation): 43.5% | radioactivity immunoprecipitated by anti-MA serum [5]: a significant amount of radioactivity was immunoprecipitated by anti-MA serum

CC(=O)c1cc(Nc2cc(C)[n+](C)c(N)n2)cc(C(C)=O)c1.[I-] [Compound No. 2, 2-amino-4-(3,5-diacetylphenyl)amino-1,6-dimethylpyrimidinium iodide]
Dose ([1]; calculated from clearance for target serum conc. (No. 2: 10 nM; No. 11: 50 nM; No. 15: 15 nM)): 6.80 mg/Kg day | inhibition of reverse transcriptase ([2]; data not shown): does not inhibit reverse transcriptase | reduction in viral output ([6]; 1 and 10 μM, lower MOI, 1 ng p24/10^6 cells): ~2 fold | anti-viral effect in cultures of replicating cells ([6]; infected at the multiplicity of infection used to infect monocytes): No anti-viral effect was detected | effect on viral production ([6]; up to 10 μM, higher MOI, 10 ng p24/10^6 cells): only a marginal effect
